Data reported in ChEMBL document CHEMBL5543122, “Discovery of HC-7366: An Orally Bioavailable and Efficacious GCN2 Kinase Activator” (J Med Chem, 2024).
Calls of active or inactive are those of the source. The rule behind the calls is not given here.

What was measured:
[1] = target: Cytochrome P450 3A4 (Homo sapiens, UniProt P08684); assay: Inhibition of CYP3A4 in human liver microsomes using midazolam substrate incubated for 5 mins in presence of NADPH by UPLC-MS/MS analysis
[2] = target: T1, eIF-2-alpha kinase GCN2 (Homo sapiens, UniProt Q9P2K8); assay: Inhibition of GCN2 (unknown origin) using GFP-eIF2alpha as substrate incubated for 1.5 hrs in presence of ATP by plate reader analysis
T1 sequence (Q9P2K8 whole entry): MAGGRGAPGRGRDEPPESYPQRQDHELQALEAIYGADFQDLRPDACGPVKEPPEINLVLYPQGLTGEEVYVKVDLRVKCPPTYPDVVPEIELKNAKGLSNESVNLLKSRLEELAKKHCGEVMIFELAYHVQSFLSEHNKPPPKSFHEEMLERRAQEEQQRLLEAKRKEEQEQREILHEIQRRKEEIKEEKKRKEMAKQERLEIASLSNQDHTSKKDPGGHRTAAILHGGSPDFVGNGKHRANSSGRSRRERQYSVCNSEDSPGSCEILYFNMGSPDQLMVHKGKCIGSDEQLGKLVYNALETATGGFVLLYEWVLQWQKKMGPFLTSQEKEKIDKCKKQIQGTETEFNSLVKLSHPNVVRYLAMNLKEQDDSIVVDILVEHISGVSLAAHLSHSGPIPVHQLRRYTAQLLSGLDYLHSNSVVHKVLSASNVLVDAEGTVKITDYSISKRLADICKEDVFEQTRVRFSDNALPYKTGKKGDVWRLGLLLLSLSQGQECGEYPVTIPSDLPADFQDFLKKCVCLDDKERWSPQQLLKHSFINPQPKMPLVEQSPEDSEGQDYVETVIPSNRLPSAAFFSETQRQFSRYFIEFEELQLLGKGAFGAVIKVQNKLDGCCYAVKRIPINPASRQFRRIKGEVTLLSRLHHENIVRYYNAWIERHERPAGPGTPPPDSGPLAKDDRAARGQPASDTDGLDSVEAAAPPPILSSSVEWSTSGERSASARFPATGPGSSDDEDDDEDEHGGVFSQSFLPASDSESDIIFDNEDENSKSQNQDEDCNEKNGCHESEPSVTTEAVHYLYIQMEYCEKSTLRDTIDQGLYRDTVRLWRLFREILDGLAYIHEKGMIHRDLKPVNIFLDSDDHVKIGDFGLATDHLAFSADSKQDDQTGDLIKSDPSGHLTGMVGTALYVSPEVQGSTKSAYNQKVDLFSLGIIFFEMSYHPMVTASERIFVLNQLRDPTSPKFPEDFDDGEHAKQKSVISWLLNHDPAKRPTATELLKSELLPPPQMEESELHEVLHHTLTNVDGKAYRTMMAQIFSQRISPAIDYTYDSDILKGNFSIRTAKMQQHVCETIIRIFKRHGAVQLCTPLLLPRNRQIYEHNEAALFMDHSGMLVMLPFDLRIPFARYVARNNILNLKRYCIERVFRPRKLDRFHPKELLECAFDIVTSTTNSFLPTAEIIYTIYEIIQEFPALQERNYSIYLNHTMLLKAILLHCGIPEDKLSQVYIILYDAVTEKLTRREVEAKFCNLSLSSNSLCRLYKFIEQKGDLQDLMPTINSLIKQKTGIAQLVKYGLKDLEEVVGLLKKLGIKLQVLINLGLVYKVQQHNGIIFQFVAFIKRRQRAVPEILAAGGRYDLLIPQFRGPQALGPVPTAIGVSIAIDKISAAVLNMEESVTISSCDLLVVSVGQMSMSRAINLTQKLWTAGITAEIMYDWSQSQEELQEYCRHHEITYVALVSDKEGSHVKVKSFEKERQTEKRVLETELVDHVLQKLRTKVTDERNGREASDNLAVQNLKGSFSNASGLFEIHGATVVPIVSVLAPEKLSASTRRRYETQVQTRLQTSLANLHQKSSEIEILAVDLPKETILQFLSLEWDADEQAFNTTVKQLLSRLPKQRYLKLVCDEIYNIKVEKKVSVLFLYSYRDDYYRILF

[3] = target: T1, eIF-2-alpha kinase GCN2; conditions: HEK293, filed as activator, time 6.5 hrs
[4] = target: T2, Eukaryotic translation initiation factor 2-alpha kinase 3 (Homo sapiens) (UniProt Q9NZJ5); assay: Activation of PERK in HEK293 cells transfected with ATF4 response element assessed as unbound effective concentration preincubated for 30 mins followed by tunicamycin addition and measured after 6 hrs by One-Glo reagent based plate reader assay; assay type: cell-based; conditions: filed as activator, time 6.5 hrs
T2 sequence (whole entry): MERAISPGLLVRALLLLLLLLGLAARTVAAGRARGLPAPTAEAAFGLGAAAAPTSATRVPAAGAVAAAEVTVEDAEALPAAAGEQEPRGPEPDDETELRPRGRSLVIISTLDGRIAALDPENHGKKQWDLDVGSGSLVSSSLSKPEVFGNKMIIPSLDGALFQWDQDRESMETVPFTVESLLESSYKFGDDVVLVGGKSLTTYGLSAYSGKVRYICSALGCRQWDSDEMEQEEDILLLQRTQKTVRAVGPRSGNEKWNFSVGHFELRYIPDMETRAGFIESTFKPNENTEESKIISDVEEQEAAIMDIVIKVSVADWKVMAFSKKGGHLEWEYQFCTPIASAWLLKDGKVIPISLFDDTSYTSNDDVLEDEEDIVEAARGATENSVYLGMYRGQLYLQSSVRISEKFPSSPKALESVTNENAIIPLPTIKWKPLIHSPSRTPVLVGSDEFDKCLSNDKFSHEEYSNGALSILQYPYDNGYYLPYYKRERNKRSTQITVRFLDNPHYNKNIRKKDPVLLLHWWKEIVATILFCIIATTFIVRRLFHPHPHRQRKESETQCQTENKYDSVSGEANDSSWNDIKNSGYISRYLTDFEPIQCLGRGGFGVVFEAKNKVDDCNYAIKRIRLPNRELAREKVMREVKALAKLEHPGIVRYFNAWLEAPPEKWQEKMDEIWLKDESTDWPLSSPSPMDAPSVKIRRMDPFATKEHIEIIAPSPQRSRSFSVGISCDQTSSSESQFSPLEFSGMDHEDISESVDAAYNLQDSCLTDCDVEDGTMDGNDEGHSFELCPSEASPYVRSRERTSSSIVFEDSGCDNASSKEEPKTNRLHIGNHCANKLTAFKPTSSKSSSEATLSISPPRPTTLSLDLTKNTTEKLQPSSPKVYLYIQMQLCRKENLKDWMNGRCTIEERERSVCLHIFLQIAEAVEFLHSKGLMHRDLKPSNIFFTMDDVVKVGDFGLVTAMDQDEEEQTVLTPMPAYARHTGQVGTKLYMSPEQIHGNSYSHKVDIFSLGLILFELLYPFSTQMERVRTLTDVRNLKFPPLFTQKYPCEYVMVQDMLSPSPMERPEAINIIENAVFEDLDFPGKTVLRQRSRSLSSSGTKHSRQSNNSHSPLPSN

[5] = Protein binding in HEK293 cells assessed as free fraction; assay type: ADME, cell-based; conditions: human
[6] = target: T3, Eukaryotic translation initiation factor 2-alpha kinase 3 (Homo sapiens, UniProt Q9NZJ5); assay: Activation of PERK in HEK293 cells transfected with ATF4 response element preincubated for 30 mins followed by tunicamycin addition and measured after 6 hrs by One-Glo reagent based plate reader assay; assay type: cell-based
T3 sequence (Q9NZJ5 whole entry): T2 sequence (whole entry)

[7] = target: T1, eIF-2-alpha kinase GCN2; assay: Activation of GCN2 in HEK293 cells transfected with ATF4 response element preincubated for 30 mins followed by halofuginone addition and measured after 6 hrs by One-Glo reagent based plate reader assay; assay type: cell-based
[8] = Oral bioavailability in Sprague-Dawley rat at 3 mg/kg measured upto 24 hrs; assay type: ADME, organism-based; conditions: in vivo; for F: po, 3 mg/kg, 24 h
[9] = Unbound AUC in Sprague-Dawley rat at 3 mg/kg, po measured upto 24 hrs; assay type: ADME, organism-based; conditions: in vivo
[10] = Unbound Cmax in Sprague-Dawley rat at 3 mg/kg, po measured upto 24 hrs; assay type: ADME, organism-based; conditions: in vivo
[11] = Cmax in Sprague-Dawley rat at 3 mg/kg, po measured upto 24 hrs; assay type: ADME, organism-based; conditions: in vivo
[12] = Unbound volume of distribution at steady state in Sprague-Dawley rat at 1 mg/kg, iv measured upto 24 hrs; assay type: ADME, organism-based; conditions: in vivo
[13] = Intrinsic clearance in human hepatocytes assessed per 10^4 cells at 1 uM measured upto 120 mins by UPLC-MS/MS analysis; assay type: ADME, cell-based, Hepatocyte; conditions: 2 h
[14] = Unbound clearance in Sprague-Dawley rat plasma at 1 mg/kg, iv measured upto 24 hrs; assay type: ADME, organism-based; conditions: in vivo
[15] = Half-life in Sprague-Dawley rat at 1 mg/kg, iv measured upto 24 hrs; assay type: ADME, organism-based; conditions: in vivo
[16] = Volume of distribution at steady state in Sprague-Dawley rat at 1 mg/kg, iv measured upto 24 hrs; assay type: ADME, organism-based; conditions: in vivo, read-out: Vdss
[17] = Intrinsic clearance in rat hepatocytes assessed per 10^4 cells at 1 uM measured upto 120 mins by UPLC-MS/MS analysis; assay type: ADME, cell-based, Hepatocyte; conditions: 2 h
[18] = Unbound fraction in Sprague-Dawley rat plasma at 1 mg/kg, iv measured upto 24 hrs; assay type: ADME, organism-based
[19] = physchem; conditions: 1-octanol/PBS, pH 7.4
[20] = system: Mus musculus; assay: In vivo activation of GCN2 in BALB/c nude mouse xenografted with human HT-1080 cells assessed as […] ASNS protein level in tumor at 0.3 to 3 mg/kg after 6 hrs; assay type: functional, organism-based; conditions: dose 0.3-3 mg/kg
[21] = system: MOLM-16; assay: Antitumor activity against human MOLM16 cells xenografted in BALB/c nude mouse assessed as reduction in tumor growth at 1 to 3 mg/kg administered twice a day for 17 days; assay type: functional, organism-based; conditions: dose 1-3 mg/kg, time 17.0 day
[22] = system: Mus musculus; assay: In vivo activation of GCN2 in BALB/c nude mouse xenografted with human HT-1080 cells assessed as […] ATF4 protein level in tumor at 0.3 to 3 mg/kg after 6 hrs; assay type: functional, organism-based; conditions: dose 0.3-3 mg/kg

Chain of Cytochrome P450 3A4 (P08684 whole entry): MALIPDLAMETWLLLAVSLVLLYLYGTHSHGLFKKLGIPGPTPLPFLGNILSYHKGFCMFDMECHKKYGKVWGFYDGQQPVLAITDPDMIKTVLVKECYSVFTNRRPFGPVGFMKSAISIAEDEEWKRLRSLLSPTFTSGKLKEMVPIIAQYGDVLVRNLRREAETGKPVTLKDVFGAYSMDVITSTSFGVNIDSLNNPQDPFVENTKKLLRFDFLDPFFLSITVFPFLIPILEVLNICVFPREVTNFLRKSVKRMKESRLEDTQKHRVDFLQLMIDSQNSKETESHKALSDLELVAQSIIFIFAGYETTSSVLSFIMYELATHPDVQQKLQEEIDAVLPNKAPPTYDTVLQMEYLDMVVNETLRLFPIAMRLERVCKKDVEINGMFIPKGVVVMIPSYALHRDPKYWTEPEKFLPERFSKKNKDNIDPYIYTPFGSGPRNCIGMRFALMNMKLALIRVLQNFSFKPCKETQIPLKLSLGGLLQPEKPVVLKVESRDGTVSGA

Compound	fEC50 [4] [nM]	fraction unbound [5]	EC50 [6] [µM]	fAUC [9] [µM·h]	fCmax [10] [nM]	Cmax [11] [µM]	F [8] [%]	fVdss [12] [L/kg]	CLH [13] [µL/min]	CL free [14] [mL/min/kg]	half-life [15] [h]	Vd [16] [L/kg]	CLH [17] [µL/min]	fraction unbound at 24 h [18]	logD at 1 h [19]	other results
CNC(=O)c1ncn2cc(-c3c(F)ccc([N-]S(=O)(=O)c4cc(Cl)cnc4OC)c3F)ncc12.[K+]	–	–	–	0.14	28	40	–	–	–	–	–	–	–	–	–	bioavailability ([8]; Sprague-Dawley): 88%
CNC(=O)c1ncn2cc(-c3c(F)ccc(NS(=O)(=O)c4cc(F)cnc4OC)c3F)ccc12	–	–	> 10	–	–	–	–	–	–	–	–	–	–	–	2.3	–
CNC(=O)c1ncn2cc(-c3c(F)ccc(NS(=O)(=O)c4cc(C#N)cnc4OC)c3F)ccc12	–	–	> 10	–	–	–	–	–	–	–	–	–	–	–	1.6	–
CNC(=O)c1n[nH]c2c(F)c(-c3c(F)ccc(NS(=O)(=O)c4cc(Cl)cnc4OC)c3F)ccc12	180	0.03	6.1	0.13	20	10.4	25	56	5.8	88	8.9	0.11	11	0.002	–	–
CNC(=O)c1ncn2cc(-c3c(F)ccc(NS(=O)(=O)c4cc(Cl)cnc4OC)c3F)ncc12	2400	–	–	–	–	–	–	–	–	–	–	–	–	–	–	Activity [20]: Active; Activity [21]: Active; Activity [22]: Active
CNC(=O)c1ncn2cc(-c3c(F)ccc(NS(=O)(=O)c4cc(F)cnc4C)c3F)ccc12	–	–	5.8	–	–	–	–	–	–	–	–	–	–	–	1.9	–

Further lines, with some results ahead:

fEC50 [4] [nM]	fraction unbound [5]	EC50 [6] [µM]	fAUC [9] [µM·h]	fCmax [10] [nM]	Cmax [11] [µM]	F [8] [%]	fVdss [12] [L/kg]	CLH [13] [µL/min]	CL free [14] [mL/min/kg]	half-life [15] [h]	Vd [16] [L/kg]	CLH [17] [µL/min]	fraction unbound at 24 h [18]	logD at 1 h [19]	Compound	other results
240	0.45	0.46	–	–	–	–	–	–	–	–	–	–	–	–	CNC(=O)c1ncn2c1CC[C@H](c1c(F)ccc(NS(=O)(=O)c3cc(Cl)cnc3OC)c1F)C2	IC50 [1]: 33 µM; IC50 [2]: 0.069 µM; fEC50 [3]: 110 nM; EC50 [7]: 0.24 µM
170	0.1	1.7	0.093	16	14.3	70	93	2.8	390	2.4	0.1	15	0.001	–	COc1ncc(Cl)cc1S(=O)(=O)Nc1ccc(F)c(-c2ccc3c(-c4ncc[nH]4)ncn3c2)c1F	–
1100	0.22	4.9	0.029	6.2	20.6	54	320	9	930	4.3	0.1	9.8	0.001	–	CNC(=O)c1ncn2cc(-c3c(F)ccc(NS(=O)(=O)c4cc(Cl)cnc4OC)c3F)ccc12	–
55	0.04	1.4	0.0011	0.31	0.62	1.5	180	4.4	740	3.8	0.09	8.2	0.001	–	COc1ncc(Cl)cc1S(=O)(=O)Nc1ccc(F)c(-c2ccc3c(-c4ncc[nH]4)n[nH]c3c2F)c1F	–
1000	0.71	1.5	0.14	180	14.2	95	15	7.8	340	0.9	0.19	13	0.012	–	CNC(=O)c1ncn2c1CC[C@H](c1c(F)ccc(NS(=O)(=O)c3cc(F)cnc3OC)c1F)C2	–
350	–	1.5	–	–	–	–	–	–	–	–	–	–	–	3	CNC(=O)c1ncn2c(F)c(-c3c(F)ccc(NS(=O)(=O)c4cc(Cl)cnc4OC)c3F)ccc12	–
280	0.32	0.87	–	–	–	–	–	3.8	–	–	–	5.9	–	–	CNC(=O)c1ncn2nc(-c3c(F)ccc(NS(=O)(=O)c4cc(Cl)cnc4OC)c3F)ccc12	–
